Laboratory results published in patent US7893299B2, “Interleukin-1 and tumor necrosis factor-αmodulators; syntheses of such modulators and methods of using such modulators” (Nereus Pharmaceuticals, Inc., priority 2005, dated 2011).

Tests used:
[1] = system: IκBα phosphorylation; test: phosphorylation level of IκBα induced by LPS in RPMI 8226 cells; type: cell-based; conditions: formula (IIB-A1) 13 μM, TTL3 10 μM, 50 ng/ml LPS
Method: One ml/well of 2×10^6/ml RPMI 8226 cells (#CCL-155C, American Type Culture Collection) were seeded in 6-well plate in LGM-3 medium and cultured for overnight at 37° C., 5% CO2 and 95% humidified air. TTL3 and formula (IIB-A1) were added to RPMI 8226 cells at the final concentration of 10 μM and 13 μM for 1 hr, respectively. DMSO was used as a control. Cells were then stimulated with 50 ng/ml LPS diluted in LGM-3 medium from 1 mg/ml stock solution for 30 min, 1 hr, 2 hr and 4 hr. At the end of each time point, cells were harvested by centrifugation and cell pellets were washed once in ice-cold 1× DPBS. To prepare samples for SDS-PAGE, cells were lysed in RIPA buffer (50 mM Tris-HCl, pH7.4, 0.9% NaCl, 1% Triton X-100, 0.25% Na-deoxycholate, 1 mM EDTA, 2 mM Na3VO4 and 1× protease inhibitors cocktail) for 15 min on ice. Cell lysates were cleared by centrifugation at 14,000 rpm, 4° C. for 10 min. Protein concentrations of cell lysates were determined by BCA protein assay kit prior to SDS-PAGE. Equal amount of proteins from various cell lysates were resolved on 10% NuPage MES precast gels and transferred to nitrocellulose membranes according to the manufacturer's instructions. After transfer membranes were first blocked in BLOTTO (5% Non-fat dry milk in 1× DPBS buffer containing 0.1% Tween-20) at room temperature for 2 hr and then incubated with appropriate primary antibodies: anti-phospho-IκBα (1:1000) or anti-Tubulin (1:2000) for 2 hr. Antibody against tubulin was used as a control to confirm the equal loading of each sample. After the primary antibody incubation, membranes were washed briefly 2-3 times for 10 min each with BLOTTO and again incubated with sheep anti-mouse HRP conjugated secondary antibody for 1 hr. Following the secondary antibody incubation, membranes were washed extensively 4 times for 15 min each with PBST (1× DPBS plus 0.1% Tween-20). HRP activity was visualized by the enhanced chemiluminescence (ECL) detection system.

[2] = system: IL-10 production; test: LPS-stimulated IL-10 levels in RPMI 8226 cells (ELISA); type: cell-based, human; conditions: 20 μM to 0.16 μM
Method: Ninety μl of 2.8×10^5/ml and 0.5 ml of 5×10^5/ml RMPI 8226 cells (#CCL-155C, American Type Culture Collection) were seeded in 96-well and 6-well plate in LGM-3 medium, respectively. Cells were cultured overnight at 37° C., 5% CO2 and 95% humidified air. 8-point serial dilution of TTL3 or formula (IIB-A1) was added to cells for 1 hr at the final concentration ranging from 20 μM to 0.16 μM. DMSO was used as control. After 1 hr, 50 ng/ml of LPS diluted in LGM-3 medium from 1 mg/ml stock solution was added to stimulate the cells for additional 10 hr. Supernatants were collected and IL-8 and IL-10 levels were analyzed by using the human IL-8 and IL-10 cytoset ELISA kits.

[3] = system: NO; type: cell-based, Murine; conditions: 10 μM
Method: After 2 days in culture the medium was replaced by phenol-red free RPMI 1640 medium supplemented with 0.5 mM arginine and 2% FCS followed by the addition of the indicated stimuli. TTL3, TTL1, LT-1-45, LT-1-85 and formula (IIB-A1) were added to cells at the final concentration of 10 μM for 15 min. DMSO was used as a control. Cells were then stimulated with 200 ng/ml of LPS and 20 units/ml of IFNγ for 18 hr. NO release was measured as the accumulation of nitrite and nitrate in the incubation medium (phenol-red free). Nitrate was reduced to nitrite with nitrate reductase and was determined spectrophotometrically with Griess reagent. To determine the protein levels of COX-2 and NOS-2, cells (1.5×10^6) were washed with PBS and collected by centrifugation. Cell pellets were homogenized with 100 μl of buffer A (10 mM Hepes; pH 7.9, 1 mM EDTA, 1 mM EGTA, 100 mM KCl, 1 mM dithiothreitol, 0.5 mM phenylmethylsulfonyl fluoride, 2 μg/ml aprotinin, 10 μg/ml leupeptin, 2 μg/ml Nα-p-tosyl-L-lysine chloromethyl ketone, 5 mM NaF, 1 mM Na3VO4, 10 mM Na2MoO4). After 10 min at 4° C., Nonidet P-40 was added to reach a 0.5% concentration. The tubes were gently vortexed for 15 sec and centrifuged at 8,000×g for 15 min. The supernatants were stored at −80° C. until use. Protein content was assayed using the Bio-Rad protein reagent. Protein extracts were separated by 10% SDS-polyacrylamide gel electrophoresis. The gels were blotted onto a Hybond P membrane and then incubated with appropriate primary antibodies: anti-NOS-2 or anti-cyclooxygenase-2. Antibody against β-actin was used as a control to confirm the loading of each sample. […] Different exposure times of the films were used to ensure that bands were not saturated. Quantification of the films was performed by laser densitometry.

[4] = system: TNF-α production in THP-1 cells; test: LPS-induced TNF-α production in differentiated THP-1 cells (FLISA); type: cell-based; conditions: Homo sapiens, read-out: Percent TNF-α Inhibition; for inhibition at 0.1 µg/mL: 100 ng/ml; for inhibition at 1 µg/mL: 1 ug/ml; for inhibition at 10 µg/mL: 10 ug/ml
Method: The ability to inhibit TNF-α production was analyzed in THP-1 cells, a human acute monocytic leukemia cell line that is widely used to assess monocyte functions. In order to induce maturation, THP-1 cells were plated at 1×10^6 cells/ml and pretreated with 5 nM PMA for two days. Differentiated THP-1 cells were pretreated with various concentrations of TTL3 or its analogs for 1 hour, followed by a 4 hour incubation with 1 μg of LPS (Sigma, St. Louse, Mo.). The p38 inhibitor (SB 203580; Sigma, St. Louis, Mo.) was used as a positive control. Supernatants were collected and stored at −80° C. until assayed for TNF-α activity. A resazurin assay was performed for each analog to evaluate the effects on cell metabolism and viability.
To detect the presence of human TNFα, fluorescent linked immunosorbent assay or FLISA was developed and optimized. 100 μl of beads (6 μm, Spherotech) coated with goat anti-mouse IgG (1 mg/ml, R and D Systems) were mixed with 4 μl of biotin-anti-hTNFα mouse IgG (0.1 mg/ml, R and D Systems) and 2 μl of FMAT Blue-streptavidin (0.1 mg/ml, Applied Biosystems). 50 μl of the mixtures was combined with 50 μl of the supernatant isolated from treated THP-1 cells and added to the black wall FLISA plates (Applied Biosystems) and incubated overnight. The plates were scanned at factory set PMT setting, and the values were plotted and analyzed by Applied Biosystems software.

SMILES	level of IκBα phosphorylation induced by LPS in RPMI 8226 cells [1]	level of IκBα phosphorylation induced by LPS in RPMI 8226 cells ([1]; listed as formula (IIB-A1))	LPS-induced IL-10 production [2]	LPS-induced IL-10 production ([2]; listed as formula (IIB-A1))	synthesis of NO induced by LPS/IFNγ [3]	inhibition at 0.1 µg/mL [4] [%]	inhibition at 1 µg/mL [4] [%]	inhibition at 10 µg/mL [4] [%]
C=C[C@@]1(C)CCC=C2[C@H]1CC[C@@H]1[C@](C)(C(=O)NC3CCCCC3)CCC[C@@]21C [Formula (IIB-A1), N-Cyclohexylamide Derivative of TTL]	decrease	greatly reduced	reduces LPS-induced IL-8 and IL-10 production in a dose-dependent manner	inhibits the LPS-induced IL-8 and IL-10 production	also reduced	–	–	–
C=C[C@@]1(C)CCC=C2[C@H]1CC[C@@H]1[C@](C)(C(=O)N3CCOCC3)CCC[C@@]21C [LT-1-85]	–	–	–	–	also reduced	10	45	55
C=C[C@@]1(C)CCC=C2[C@H]1CC[C@@H]1[C@](C)(C(=O)OC)CCC[C@@]21C [TTL3]	minimal	–	inhibits the IL-10 production in a dose-dependent manner	–	also reduced	30	55	70
